≈ marks a conversion by molar mass, not a printed value.
Target: T1, α-amylase
T1 construct: gene AMY2; porcine pancreas is only a guess from usual DNSA assay practice
Assay: DNSA alpha-amylase inhibition assay, nonlinear regression
Assay type: biochemical
Details: enzyme source, substrate, pH and temperature not stated; triplicate

SMILES: CC(=O)C1=C(O)C=C2NC(=O)NC3=CC(O)=C(C(C)=O)C1(c1ccccc1)C23 (stereo not shown) [compound 1, 1,1′-(5,8-Dihydroxy-2-oxo-6a-phenyl-2,3,3a1,6a-tetrahydro-1H-perimidine-6,7-diyl)bis(ethan-1-one)]
- IC50: 34.60 ± 1.43 µg/mL (≈ 91.4 µM)

Reference: article PMC12376908, “Synthesis and radiolabelled evaluation of novel pyrimidine derivatives as dual α-amylase inhibitors and GIT-targeted molecular imaging probe” (RSC Advances, 2025)
